Source: ChEMBL document CHEMBL2439988, “Inhibition of human carbonic anhydrase isoforms I-XIV with sulfonamides incorporating fluorine and 1,3,5-triazine moieties” (Bioorg Med Chem, 2013)
pKi: −log10 of the molar value.

What follows are compounds tested against Carbonic anhydrase 7 (Homo sapiens, UniProt P43166) (assay: Inhibition of human recombinant carbonic anhydrase7 cytosolic isoform expressed in Escherichia coli BL21 preincubated for 15 mins by stopped-flow CO2 hydration assay).
Chain of Carbonic anhydrase 7 (P43166 whole entry, canonical isoform): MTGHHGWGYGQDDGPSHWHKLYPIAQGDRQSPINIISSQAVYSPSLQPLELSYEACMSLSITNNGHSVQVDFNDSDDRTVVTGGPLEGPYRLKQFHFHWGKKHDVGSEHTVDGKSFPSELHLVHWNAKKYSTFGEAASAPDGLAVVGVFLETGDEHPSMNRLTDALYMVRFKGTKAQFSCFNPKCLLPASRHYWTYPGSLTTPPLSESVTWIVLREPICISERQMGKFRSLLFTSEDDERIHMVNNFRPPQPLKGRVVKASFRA

Row | SMILES | pKi
1 | CNc1nc(F)nc(Nc2ccc(S(N)(=O)=O)cc2)n1 | 8.17
2 | NS(=O)(=O)c1ccc(CCNc2nc(F)nc(NCC(=O)O)n2)cc1 | 8.08
3 | CNc1nc(NC)nc(Nc2ccc(S(N)(=O)=O)cc2)n1 | 7.35
4 | NS(=O)(=O)c1ccc(Nc2nc(F)nc(NCCO)n2)cc1 | 8.07
5 | NS(=O)(=O)c1ccc(CCNc2nc(F)nc(F)n2)cc1 | 7.66
6 | NS(=O)(=O)c1ccc(Nc2nc(F)nc(F)n2)cc1 | 8.21
7 | COC(=O)CNc1nc(F)nc(NCCc2ccc(S(N)(=O)=O)cc2)n1 | 8.19

What follows are compounds tested against Carbonic anhydrase 14 (Homo sapiens, UniProt Q9ULX7) (assay: Inhibition of human recombinant carbonic anhydrase14 transmembrane isoform expressed in Escherichia coli BL21 preincubated for 15 mins by stopped-flow CO2 hydration assay).
Chain of Carbonic anhydrase 14 (Q9ULX7 whole entry, canonical isoform): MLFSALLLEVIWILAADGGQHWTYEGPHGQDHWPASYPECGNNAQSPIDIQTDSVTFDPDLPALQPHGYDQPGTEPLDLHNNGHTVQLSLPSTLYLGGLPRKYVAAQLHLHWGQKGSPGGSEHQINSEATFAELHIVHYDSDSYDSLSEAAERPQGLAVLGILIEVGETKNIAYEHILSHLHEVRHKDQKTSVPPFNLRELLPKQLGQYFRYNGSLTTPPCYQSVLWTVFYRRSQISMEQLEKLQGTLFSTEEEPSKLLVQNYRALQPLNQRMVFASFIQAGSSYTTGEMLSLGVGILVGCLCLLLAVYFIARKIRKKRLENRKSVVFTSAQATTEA

Row | SMILES | pKi
8 | NS(=O)(=O)c1ccc(CCNc2nc(F)nc(NCC(=O)O)n2)cc1 | 6.90
9 | NS(=O)(=O)c1ccc(CCNc2nc(F)nc(F)n2)cc1 | 7.38
10 | COC(=O)CNc1nc(F)nc(NCCc2ccc(S(N)(=O)=O)cc2)n1 | 6.67

What follows are compounds tested against Carbonic anhydrase 13 (Homo sapiens, UniProt Q8N1Q1) (assay: Inhibition of human recombinant carbonic anhydrase13 cytosolic isoform expressed in Escherichia coli BL21 preincubated for 15 mins by stopped-flow CO2 hydration assay).
Chain of Carbonic anhydrase 13 (Q8N1Q1 whole entry, canonical isoform): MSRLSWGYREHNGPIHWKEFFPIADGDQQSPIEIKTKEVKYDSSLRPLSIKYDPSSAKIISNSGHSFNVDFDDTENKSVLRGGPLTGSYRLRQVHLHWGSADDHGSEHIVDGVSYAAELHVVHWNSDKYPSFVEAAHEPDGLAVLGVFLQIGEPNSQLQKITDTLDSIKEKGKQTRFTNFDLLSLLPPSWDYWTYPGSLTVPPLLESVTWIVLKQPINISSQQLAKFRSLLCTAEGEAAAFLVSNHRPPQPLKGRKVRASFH

Row | SMILES | pKi
11 | CNc1nc(F)nc(Nc2ccc(S(N)(=O)=O)cc2)n1 | 6.13
12 | NS(=O)(=O)c1ccc(CCNc2nc(F)nc(NCC(=O)O)n2)cc1 | < 5.00
13 | CNc1nc(NC)nc(Nc2ccc(S(N)(=O)=O)cc2)n1 | 6.04
14 | NS(=O)(=O)c1ccc(Nc2nc(F)nc(NCCO)n2)cc1 | < 5.00
15 | NS(=O)(=O)c1ccc(CCNc2nc(F)nc(F)n2)cc1 | 6.33
16 | NS(=O)(=O)c1ccc(Nc2nc(F)nc(F)n2)cc1 | 5.99
17 | COC(=O)CNc1nc(F)nc(NCCc2ccc(S(N)(=O)=O)cc2)n1 | 6.22

Each compound was assayed against Carbonic anhydrase 2 (Homo sapiens, UniProt P00918) (assay: Inhibition of human recombinant carbonic anhydrase2 cytosolic isoform expressed in Escherichia coli BL21 preincubated for 15 mins by stopped-flow CO2 hydration assay).

Row | SMILES | pKi
18 | CNc1nc(F)nc(Nc2ccc(S(N)(=O)=O)cc2)n1 | 8.27
19 | NS(=O)(=O)c1ccc(CCNc2nc(F)nc(NCC(=O)O)n2)cc1 | 8.30
20 | NS(=O)(=O)c1ccc(Nc2nc(F)nc(NCCO)n2)cc1 | 8.26
21 | NS(=O)(=O)c1ccc(CCNc2nc(F)nc(F)n2)cc1 | 8.15
22 | NS(=O)(=O)c1ccc(Nc2nc(F)nc(F)n2)cc1 | 8.31
23 | COC(=O)CNc1nc(F)nc(NCCc2ccc(S(N)(=O)=O)cc2)n1 | 8.25

Each compound was assayed against Carbonic anhydrase 4 (Homo sapiens, UniProt P22748) (assay: Inhibition of human recombinant carbonic anhydrase4 membrane-bound isoform expressed in Escherichia coli BL21 preincubated for 15 mins by stopped-flow CO2 hydration assay).
Chain of Carbonic anhydrase 4 (P22748 whole entry, canonical isoform): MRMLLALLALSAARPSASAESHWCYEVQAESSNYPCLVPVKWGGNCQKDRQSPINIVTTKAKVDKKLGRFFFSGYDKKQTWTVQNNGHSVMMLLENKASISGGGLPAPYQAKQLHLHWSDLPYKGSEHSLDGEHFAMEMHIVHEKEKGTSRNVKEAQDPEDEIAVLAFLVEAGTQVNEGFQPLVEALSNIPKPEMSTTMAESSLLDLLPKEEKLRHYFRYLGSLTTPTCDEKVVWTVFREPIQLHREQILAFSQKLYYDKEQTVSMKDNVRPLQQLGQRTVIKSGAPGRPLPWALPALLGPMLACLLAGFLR

Row | SMILES | pKi
24 | NS(=O)(=O)c1ccc(CCNc2nc(F)nc(NCC(=O)O)n2)cc1 | 5.44
25 | NS(=O)(=O)c1ccc(CCNc2nc(F)nc(F)n2)cc1 | 5.87
26 | COC(=O)CNc1nc(F)nc(NCCc2ccc(S(N)(=O)=O)cc2)n1 | 5.56

What follows are compounds tested against Carbonic anhydrase 3 (Homo sapiens, UniProt P07451) (assay: Inhibition of human recombinant carbonic anhydrase3 cytosolic isoform expressed in Escherichia coli BL21 preincubated for 15 mins by stopped-flow CO2 hydration assay).
Chain of Carbonic anhydrase 3 (P07451 whole entry, canonical isoform): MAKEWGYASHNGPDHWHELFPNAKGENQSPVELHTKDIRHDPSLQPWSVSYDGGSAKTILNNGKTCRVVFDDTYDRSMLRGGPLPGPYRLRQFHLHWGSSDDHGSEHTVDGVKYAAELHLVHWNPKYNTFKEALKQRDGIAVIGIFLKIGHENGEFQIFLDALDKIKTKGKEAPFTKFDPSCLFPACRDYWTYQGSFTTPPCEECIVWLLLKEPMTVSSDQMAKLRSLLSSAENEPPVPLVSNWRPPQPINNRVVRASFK

Row | SMILES | pKi
27 | NS(=O)(=O)c1ccc(CCNc2nc(F)nc(NCC(=O)O)n2)cc1 | 5.05
28 | NS(=O)(=O)c1ccc(CCNc2nc(F)nc(F)n2)cc1 | 5.15
29 | COC(=O)CNc1nc(F)nc(NCCc2ccc(S(N)(=O)=O)cc2)n1 | 5.16

The compounds below were run against Carbonic anhydrase 1 (Homo sapiens, UniProt P00915) (assay: Inhibition of human recombinant carbonic anhydrase1 cytosolic isoform expressed in Escherichia coli BL21 preincubated for 15 mins by stopped-flow CO2 hydration assay).
Chain of Carbonic anhydrase 1 (P00915 whole entry, canonical isoform): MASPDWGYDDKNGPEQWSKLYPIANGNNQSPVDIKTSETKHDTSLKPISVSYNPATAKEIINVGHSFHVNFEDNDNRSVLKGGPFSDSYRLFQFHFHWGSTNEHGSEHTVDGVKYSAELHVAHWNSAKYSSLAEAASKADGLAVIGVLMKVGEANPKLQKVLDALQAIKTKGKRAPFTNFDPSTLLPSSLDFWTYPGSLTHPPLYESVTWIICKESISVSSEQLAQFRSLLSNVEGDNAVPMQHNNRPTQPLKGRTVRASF

Row | SMILES | pKi
30 | CNc1nc(F)nc(Nc2ccc(S(N)(=O)=O)cc2)n1 | 7.05
31 | NS(=O)(=O)c1ccc(CCNc2nc(F)nc(NCC(=O)O)n2)cc1 | 6.60
32 | NS(=O)(=O)c1ccc(Nc2nc(F)nc(NCCO)n2)cc1 | 6.62
33 | NS(=O)(=O)c1ccc(CCNc2nc(F)nc(F)n2)cc1 | 6.69
34 | NS(=O)(=O)c1ccc(Nc2nc(F)nc(F)n2)cc1 | 7.06
35 | COC(=O)CNc1nc(F)nc(NCCc2ccc(S(N)(=O)=O)cc2)n1 | 7.09

The compounds below were run against Carbonic anhydrase 6 (Homo sapiens, UniProt P23280) (assay: Inhibition of human recombinant carbonic anhydrase6 secreted isoform expressed in Escherichia coli BL21 preincubated for 15 mins by stopped-flow CO2 hydration assay).
Chain of Carbonic anhydrase 6 (P23280 whole entry, canonical isoform): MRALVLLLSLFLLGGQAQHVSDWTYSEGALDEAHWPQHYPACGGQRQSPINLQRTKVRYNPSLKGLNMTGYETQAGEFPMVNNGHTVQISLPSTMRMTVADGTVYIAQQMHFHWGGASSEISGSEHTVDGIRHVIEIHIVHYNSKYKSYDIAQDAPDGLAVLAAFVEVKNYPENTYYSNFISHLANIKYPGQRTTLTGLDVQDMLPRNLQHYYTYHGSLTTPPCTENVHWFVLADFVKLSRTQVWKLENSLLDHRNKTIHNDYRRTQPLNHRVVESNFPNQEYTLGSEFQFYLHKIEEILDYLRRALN

Row | SMILES | pKi
36 | NS(=O)(=O)c1ccc(CCNc2nc(F)nc(NCC(=O)O)n2)cc1 | 6.83
37 | NS(=O)(=O)c1ccc(CCNc2nc(F)nc(F)n2)cc1 | 5.86
38 | COC(=O)CNc1nc(F)nc(NCCc2ccc(S(N)(=O)=O)cc2)n1 | 6.78

What follows are compounds tested against Carbonic anhydrase 9 (Homo sapiens, UniProt Q16790) (assay: Inhibition of human recombinant carbonic anhydrase9 transmembrane isoform expressed in Escherichia coli BL21 preincubated for 15 mins by stopped-flow CO2 hydration assay).

Row | SMILES | pKi
39 | CNc1nc(F)nc(Nc2ccc(S(N)(=O)=O)cc2)n1 | 6.64
40 | NS(=O)(=O)c1ccc(CCNc2nc(F)nc(NCC(=O)O)n2)cc1 | 6.67
41 | NS(=O)(=O)c1ccc(Nc2nc(F)nc(NCCO)n2)cc1 | 6.68
42 | COC(=O)CNc1nc(F)nc(NCCc2ccc(S(N)(=O)=O)cc2)n1 | 6.70

Each compound was assayed against Carbonic anhydrase 12 (Homo sapiens, UniProt O43570) (assay: Inhibition of human recombinant carbonic anhydrase12 transmembrane isoform expressed in Escherichia coli BL21 preincubated for 15 mins by stopped-flow CO2 hydration assay).
Chain of Carbonic anhydrase 12 (O43570 whole entry, canonical isoform): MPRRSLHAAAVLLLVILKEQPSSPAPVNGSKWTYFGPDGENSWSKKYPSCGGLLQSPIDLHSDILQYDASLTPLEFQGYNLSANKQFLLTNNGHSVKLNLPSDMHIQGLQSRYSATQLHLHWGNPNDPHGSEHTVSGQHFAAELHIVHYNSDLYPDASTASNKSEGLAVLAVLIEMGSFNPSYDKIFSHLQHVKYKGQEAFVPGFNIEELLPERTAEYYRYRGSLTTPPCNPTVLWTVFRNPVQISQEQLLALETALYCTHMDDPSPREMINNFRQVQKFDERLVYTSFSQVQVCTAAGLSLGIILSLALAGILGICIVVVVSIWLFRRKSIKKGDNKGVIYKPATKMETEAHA

Row | SMILES | pKi
43 | CNc1nc(F)nc(Nc2ccc(S(N)(=O)=O)cc2)n1 | 7.81
44 | NS(=O)(=O)c1ccc(CCNc2nc(F)nc(NCC(=O)O)n2)cc1 | 8.35
45 | NS(=O)(=O)c1ccc(Nc2nc(F)nc(NCCO)n2)cc1 | 7.76
46 | NS(=O)(=O)c1ccc(CCNc2nc(F)nc(F)n2)cc1 | 8.34
47 | NS(=O)(=O)c1ccc(Nc2nc(F)nc(F)n2)cc1 | 8.00
48 | COC(=O)CNc1nc(F)nc(NCCc2ccc(S(N)(=O)=O)cc2)n1 | 8.30

What follows are compounds tested against Carbonic anhydrase 5A, mitochondrial (Homo sapiens, UniProt P35218) (assay: Inhibition of human recombinant carbonic anhydrase5A mitochondrial isoform expressed in Escherichia coli BL21 preincubated for 15 mins by stopped-flow CO2 hydration assay).
Chain of Carbonic anhydrase 5A, mitochondrial (P35218 whole entry, canonical isoform): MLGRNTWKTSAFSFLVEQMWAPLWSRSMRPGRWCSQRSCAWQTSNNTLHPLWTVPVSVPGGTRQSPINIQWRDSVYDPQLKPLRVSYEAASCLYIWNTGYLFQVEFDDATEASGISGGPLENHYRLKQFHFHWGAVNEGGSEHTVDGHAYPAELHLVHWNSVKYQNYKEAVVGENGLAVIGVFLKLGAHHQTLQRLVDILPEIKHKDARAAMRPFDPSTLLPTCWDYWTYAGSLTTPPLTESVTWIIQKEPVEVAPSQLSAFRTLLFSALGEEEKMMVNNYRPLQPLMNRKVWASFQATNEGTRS

Row | SMILES | pKi
49 | NS(=O)(=O)c1ccc(CCNc2nc(F)nc(NCC(=O)O)n2)cc1 | 6.04
50 | NS(=O)(=O)c1ccc(CCNc2nc(F)nc(F)n2)cc1 | < 5.00
51 | COC(=O)CNc1nc(F)nc(NCCc2ccc(S(N)(=O)=O)cc2)n1 | 6.19
